Experimental data taken from patent US20080206322A1, “Pharmaceutical Multiparticulate Composit Ion Comprising Mycophenolic Acid or Myco Phenolate Sodium and Combination Compositions with Rapamycin” (NOVARTIS AG, priority 2004, published 2008).
Like-named read-outs stand apart in the source and are kept apart here.

Test: Solubility in acidic medium
Assay type: physicochemical

solubility in acidic medium: low solubility
solubility in acidic medium (listed as MPA): poor solubility
Compound: COc1c(C)c2c(c(O)c1C/C=C(\C)CCC(=O)O)C(=O)OC2 [mycophenolic acid]
